According to DBAASP:
Converted amounts (≈) assume the structure as drawn. One block for each compound: values may come before it.

Tests used:
Assay in all cases: ≥ marks a high value that may be exact or a test limit, other limits are often not marked, values filed in µg/mL are converted to µM
[1] = tested on: Acinetobacter baumannii ATCC 9955
[2] = tested on: Acinetobacter baumannii ATCC BAA-1794
Acinetobacter baumannii = tested on: Acinetobacter baumannii
[3] = tested on: Candida albicans ATCC 10231
Candida albicans = tested on: Candida albicans
[4] = tested on: Enterococcus faecalis ATCC 22192
[5] = tested on: Enterococcus faecalis ATCC 51299
[6] = tested on: Escherichia coli ATCC 25922
[7] = tested on: Escherichia coli ATCC 4157
[8] = tested on: Escherichia coli ATCC 51659
Escherichia coli = tested on: Escherichia coli
[9] = tested on: Klebsiella pneumoniae ATCC 13883
[10] = tested on: Klebsiella pneumoniae ATCC 33495
[11] = tested on: Klebsiella pneumoniae ATCC BAA-1705
Klebsiella pneumoniae = tested on: Klebsiella pneumoniae
[12] = tested on: Pseudomonas aeruginosa ATCC 27853
[13] = tested on: Pseudomonas aeruginosa ATCC 9027
[14] = tested on: Pseudomonas aeruginosa ATCC BAA-2110
Pseudomonas aeruginosa = tested on: Pseudomonas aeruginosa
[15] = tested on: Staphylococcus aureus ATCC 25923
[16] = tested on: Staphylococcus aureus ATCC 29213
[17] = tested on: Staphylococcus aureus ATCC 33592
Staphylococcus aureus = tested on: Staphylococcus aureus
[18] = tested on: Staphylococcus epidermidis
Aerococcus viridans = tested on: Aerococcus viridans
Alternaria brassicicola = tested on: Alternaria brassicicola
Bacillus megaterium = tested on: Bacillus megaterium
Botrytis cinerea = tested on: Botrytis cinerea
Escherichia coli D22 = tested on: Escherichia coli D22
Escherichia coli D31 = tested on: Escherichia coli D31
Fusarium culmorum = tested on: Fusarium culmorum
Micrococcus luteus = tested on: Micrococcus luteus
Neurospora crassa = tested on: Neurospora crassa
[19] = tested on: Acinetobacter baumannii Ab41
[20] = tested on: Acinetobacter baumannii AbR-215
[21] = tested on: Escherichia coli ATCC 8739
[22] = tested on: Mycobacterium tuberculosis CAS3
[23] = tested on: Mycobacterium tuberculosis FYX
[24] = tested on: Mycobacterium tuberculosis WXY
[25] = tested on: Streptococcus mutans UA159
[26] = tested on: Streptococcus sanguinis ATCC 10556
[27] = tested on: Streptococcus sobrinus ATCC 6715
[28] = tested on: Bacillus subtilis KCTC 3068
[29] = tested on: Salmonella typhimurium CMCC 50013

SMILES: CC[C@H](C)[C@H](NC(=O)[C@H](CCCCN)NC(=O)[C@H](CCCN=C(N)N)NC(=O)[C@H](CCCN=C(N)N)NC(=O)[C@H](CC(C)C)NC(=O)[C@H](CCCCN)NC(=O)[C@H](CCCCN)NC(=O)[C@H](Cc1ccccc1)NC(=O)[C@H](CC(C)C)NC(=O)CN)C(=O)N[C@@H](CCCCN)C(=O)N[C@@H](CCCCN)C(=O)NCC(=O)N[C@@H](Cc1ccccc1)C(=O)N[C@@H](CCCCN)C(=O)N[C@@H](CCCCN)C(=O)N[C@H](C(=O)N[C@@H](Cc1ccccc1)C(=O)N[C@@H](CCCCN)C(=O)N[C@@H](CCCN=C(N)N)C(=O)N[C@@H](CC(C)C)C(=O)O)[C@@H](C)CC [GLFKKLRRKIKKGFKKIFKRL]
MIC [1]: 15.9 µM (≈ 42 µg/mL)
MIC [2]: 3.8 µM (≈ 10 µg/mL)
MIC (Acinetobacter baumannii): 12.2 µM (≈ 32 µg/mL)
MIC [3]: > 48.6 µM
MIC (Candida albicans): > 48.6 µM
MIC [4]: 15.9 µM (≈ 42 µg/mL)
MIC [5]: 15.9 µM (≈ 42 µg/mL)
MIC [6]: 12.2 µM (≈ 32 µg/mL)
MIC [7]: 7.97 µM (≈ 21 µg/mL)
MIC [8]: ≥ 53.2 µM
MIC (Escherichia coli): 34.4 µM (≈ 90.5 µg/mL)
MIC [9]: 24.3 µM (≈ 64 µg/mL)
MIC [10]: 1.97 µM (≈ 5.2 µg/mL)
MIC [11]: 10.6 µM (≈ 28 µg/mL)
MIC (Klebsiella pneumoniae): 48.6 µM (≈ 128 µg/mL)
MIC [12]: 24.3 µM (≈ 64 µg/mL)
MIC [13]: 3.8 µM (≈ 10 µg/mL)
MIC [14]: 15.9 µM (≈ 42 µg/mL)
MIC (Pseudomonas aeruginosa): 8.59 µM (≈ 22.6 µg/mL)
MIC [15]: 10.6 µM (≈ 28 µg/mL)
MIC [16]: 48.6 µM (≈ 128 µg/mL)
MIC [17]: 10.6 µM (≈ 28 µg/mL)
MIC (Staphylococcus aureus): 24.3 µM (≈ 64 µg/mL)
MIC [18]: 24.3 µM (≈ 64 µg/mL)

SMILES: CC[C@H](C)[C@H](N)C(=O)N[C@H](C(=O)N[C@@H](Cc1ccc(O)cc1)C(=O)N[C@H]1CSSC[C@@H](C(=O)N[C@@H](CCC(N)=O)C(=O)N[C@@H](CCCN=C(N)N)C(=O)N[C@@H](CCSC)C(=O)O)NC(=O)[C@H](CCCCN)NC(=O)CNC(=O)[C@H]([C@@H](C)O)NC(=O)[C@H](CCCN=C(N)N)NC(=O)[C@H](CCCN=C(N)N)NC(=O)[C@H](CC(N)=O)NC1=O)[C@@H](C)CC [IIYCNRRTGKCQRM]
MIC (Aerococcus viridans): 1.73 µM (≈ 3.01 µg/mL)
MIC (Alternaria brassicicola): 7.07 µM (≈ 12.3 µg/mL)
MIC (Bacillus megaterium): 14.1 µM (≈ 24.6 µg/mL)
MIC (Botrytis cinerea): 14.1 µM (≈ 24.6 µg/mL)
MIC (Escherichia coli D22): 28.3 µM (≈ 49.2 µg/mL)
MIC (Escherichia coli D31): 28.3 µM (≈ 49.2 µg/mL)
MIC (Fusarium culmorum): 28.3 µM (≈ 49.2 µg/mL)
MIC (Klebsiella pneumoniae): 28.3 µM (≈ 49.2 µg/mL)
MIC (Micrococcus luteus): 7.07 µM (≈ 12.3 µg/mL)
MIC (Neurospora crassa): 28.3 µM (≈ 49.2 µg/mL)

SMILES: NCCCC[C@H](NC(=O)[C@H](CCCN=C(N)N)NC(=O)CNC(=O)[C@@H](N)Cc1ccc(O)cc1)C(=O)N[C@@H](CCCCN)C(=O)N[C@@H](CCCN=C(N)N)C(=O)N[C@@H](CCCN=C(N)N)C(=O)N[C@@H](CCC(N)=O)C(=O)N[C@@H](CCCN=C(N)N)C(=O)N[C@@H](CCCN=C(N)N)C(=O)N[C@@H](CCCN=C(N)N)C(=O)O [YGRKKRRQRRR]
MIC [28]: 26.4 µM (≈ 41.2 µg/mL)
MIC [6]: 15.5 µM (≈ 24.1 µg/mL)
MIC [29]: 29 µM (≈ 45.2 µg/mL)
MIC [16]: 16.6 µM (≈ 25.9 µg/mL)

Further lines, results first:

MIC [19]: 3.2 µM (≈ 8.06 µg/mL)
MIC [20]: 3.2 µM (≈ 8.06 µg/mL)
MIC [21]: 3.2 µM (≈ 8.06 µg/mL)
MIC (Staphylococcus aureus): ≥ 80.6 µM
SMILES: CC(C)C[C@H](NC(=O)[C@H](CCCCN)NC(=O)[C@H](C)NC(=O)[C@H](C)NC(=O)[C@H](C)NC(=O)[C@H](C)NC(=O)[C@H](C)NC(=O)[C@H](C)NC(=O)[C@H](CCCCN)NC(=O)[C@H](CC(C)C)NC(=O)[C@H](C)NC(=O)[C@H](C)NC(=O)[C@H](CCCCN)NC(=O)[C@H](C)NC(=O)[C@H](C)NC(=O)[C@H](CCCCN)NC(=O)[C@H](C)NC(=O)[C@H](C)NC(=O)[C@H](CC(C)C)NC(=O)[C@H](CCCCN)NC(=O)[C@H](C)NC(=O)[C@H](C)NC(=O)[C@H](C)NC(=O)[C@H](C)NC(=O)[C@H](C)NC(=O)[C@H](C)NC(=O)[C@H](CCCCN)NC(=O)[C@@H](N)CC(C)C)C(=O)O [LKAAAAAAKLAAKAAKAALKAAAAAAKL]

MIC [22]: ≥ 120 µM
MIC [23]: ≥ 60.2 µM
MIC [24]: ≥ 60.2 µM
SMILES: CSCC[C@H](NC(=O)[C@H](CCCCN)NC(=O)[C@H](CCCCN)NC(=O)[C@H](CC(C)C)NC(=O)[C@H](CC(C)C)NC(=O)[C@H](CCCCN)NC(=O)[C@H](CCCCN)NC(=O)[C@H](CC(C)C)NC(=O)[C@H](CC(C)C)NC(=O)[C@@H](N)CCSC)C(=O)O [MLLKKLLKKM]

MIC [25]: ≥ 38.2 µM
MIC [26]: ≥ 153 µM
MIC [27]: ≥ 38.2 µM
SMILES: NCCCC[C@H](NC(=O)CNC(=O)[C@H](CCCCN)NC(=O)[C@H](CCCCN)NC(=O)[C@H](Cc1ccccc1)NC(=O)[C@H](Cc1ccccc1)NC(=O)[C@H](CCCCN)NC(=O)[C@H](CCCCN)NC(=O)[C@H](Cc1ccccc1)NC(=O)[C@H](Cc1ccccc1)NC(=O)[C@H](CCCCN)NC(=O)CNC(=O)[C@@H](N)Cc1c[nH]c2ccccc12)C(=O)O [WGKFFKKFFKKGK]
